The values that follow come from patent publication US5994398A, “Arylsulfonamides as phospholipase A2 inhibitors” (Elan Pharmaceuticals, Inc., priority 1996, dated 1999).

Experiment [1] concerns Ca^+2 -independent PLA2. The note with it: Ackermann et al. (1995); cited from earlier work.
Experiment [2] relates to cPLA2. The note with it: Street et al. (1993); cited from earlier work.
Experiment [3] deals with Alzheimer's Disease patients. The note with it: selected group of five AD patients; cited from earlier work.
In experiment [4] the test system is IL-1β and TNF-α release in cultured microglial cells. Put plainly: Aβ1-40-induced cytokine (IL-1β and TNF-α) release in microglia, ELISA. It is filed as cell-based, human. The note with it: 50 μM Aβ1-40, cultured microglia, vs vehicle control. As for the experimental part: Cultures of human cortical astrocytes and microglia were prepared using a modification of the procedure described for cortical neurons. Cortical tissue from fetuses of 16 to 20 weeks of gestation was washed 3 times in Ca^2+ /Mg^2+ free Hanks balanced salt solution (CMF HBSS) and then dissociated by repeated pipetting. The solution was brought to a final volume of 80 mL CMF HBSS for approximately 10 mL of tissue. DNase (Sigma) was added to a final concentration of 0.05 mg/mL. 20 mL of the solution was passed through one 100 μm nylon cell strained (Falcon). The cells were then centrifuged for 5 minutes at 200×G in an IEC Clinical Centrifuge and resuspended in a trypsin/EDTA solution (0.05% trypsin+0.53 mM EDTA in HBSS; Gibco) and incubated for 20 minutes at 37° C. (10 mL of trypsin was added per 2-3 mL of tissue). The trypsin was then inactivated by adding (MEM/FBS): Modified Eagle's Medium (MEM) containing 1% glucose, 1 mM sodium pyruvate, 1 mM glutamine, and supplemented with 10% fetal bovine serum (JRH). After adding a final concentration of 0.05 mg/mL DNase the cells were resuspended and then pelleted by centrifugation and resuspended in MEM/FBS. […]
Cultured microglial cells were treated with 50 μM of Aβ1-40 or vehicle only (Control). The levels of IL-1β and TNF-α released into the culture medium were determined by ELISA assay (R&D Systems) according to manufacturer's instructions. […]

As for `O=C1O/C(=C/Br)CCC1c1cccc2ccccc12` (stereo not drawn) [Bromoenol lactone], the “inhibition of Ca+2-independent PLA2 activity” value in experiment [1] is “capable of inhibiting”. In experiment [2], the “inhibition of cPLA2” value is given as “capable of inhibiting”.
With `CCCCC/C=C\C/C=C\C/C=C\C/C=C\CCCC(=O)C(F)(F)F` [arachidonyl trifluoromethyl ketone], in experiment [1], the “inhibition of Ca+2-independent PLA2 activity” value was “capable of inhibiting”. The “inhibition of cPLA2” value in experiment [2] was “capable of inhibiting”.
Consider `COc1ccc2c(c1)c(CC(=O)O)c(C)n2C(=O)c1ccc(Cl)cc1` [indomethacin], for which, in experiment [3], the “effects on neuropathological progression” value is “no effects on neuropathological progression were noted” and the “symptomatic progression of AD” value is reported as “allegedly useful in reducing symptomatic progression”.
As for `CCCCCCCCCCCCCCCC(=O)C(F)(F)F` [palmitoyl trifluoromethyl ketone], the “inhibition of Ca+2-independent PLA2 activity” value in experiment [1] was “capable of inhibiting”. The “inhibition of cPLA2” value in experiment [2] is recorded as “capable of inhibiting”.
“Aβ1-40: Amyloid-β (Aβ) peptide 1-40, stock solutions 1 mM in sterile ddH2O”: the “stimulation of release of IL-1β and TNF-α into culture medium” value in experiment [4] was “found to stimulate the release of IL-1β and TNF-α”.
